According to US7947647B2, “Synthetic mimics of mammalian cell surface receptors: method and compositions” (The Penn State Research Foundation, priority 2004, dated 2011):

Key:
[1] = molecular target: rabbit polyclonal anti-DNP IgG; assay: Fluorescence polarization binding of DNP and NBD derivatives to anti-DNP IgG; conditions: apparent affinity, PBS pH 7.4, read-out: dissociation constants (Kd)
Jurkat lymphocytes [2] = assay: Cellular stability (cell surface half-life) of receptor; assay type: cell-based, human; conditions: 10 μM receptor 1 h, detected with anti-DNP/PrA-AF488
Description: Quantification of the cellular stability of receptor 2 (FIG. 9, Panel C). Jurkat lymphocytes (1×10^7) were incubated with receptor 2 in media (5 mL, 10 μM receptor, 1% DMSO) for 1 h at 37° C. in a 15 mL aerated centrifuge tube. Cells were washed with media (2×5 mL) to remove unincorporated receptor, resuspended in media (10 mL), transferred 2) to a tissue culture flask (25 cm^2), and maintained at 37° C. At fixed time points, an aliquot of this culture (1 mL) was removed from the flask and cells isolated by centrifugation. These cells were resuspended in media (89 μL) and a pre-equilibrated (23° C. for 1 h) complex of anti-DNP IgG (9.6 μg) and PrA488 (3 μg) in phosphate buffered saline (PBS, 11 μL, pH 7.4) was added for 5 min at 37° C. Treated cells were centrifuged (1300 g for 2 min), the supernatant was removed, cells were resuspended in media (0.5 mL), and cellular fluorescence was analyzed by flow cytometry. […]
To evaluate the temporal stability of receptor 2 on the cell surface, the half-life of this compound on Jurkat lymphocytes was quantified by addition of a soluble antibody. Cells were treated with this receptor for 1 hour (10 μM), unincorporated receptor was removed by washing cells with fresh media, and the abundance of 2 as a function of time was detected with a green fluorescent anti-DNP/PrA-AF488 complex.

Jurkat lymphocytes [3] = assay: Antibody uptake assay and uptake kinetics (flow cytometry); assay type: cell-based, human; conditions: for efficiency as mediator of ligand (IgG) uptake: anti-DNP/PrA-AF488, flow cytometry
Description: Antibody uptake assays (FIG. 8, Panels A-B, FIG. 10, and FIG. 11). Synthetic receptors 2-9 in DMSO were diluted in RPMI media (0.5 mL, final DMSO concentration=1%) containing Jurkat lymphocytes (1×10^6). These receptor-treated cells were incubated at 37° C. for 1 h, washed with RPMI media (2×0.5 mL) to remove unincorporated receptors/DMSO, and resuspended in fresh media (89 μL). To these cells was added a pre-equilibrated complex (preincubated at 23° C. for 1 h) of anti-DNP IgG (9.6 μg) and the PrA-Alexa Fluor conjugate (PrA-AF488 or PrA-AF633, 3 μg) in phosphate-buffered saline (11 μL, pH 7.4, total volume=100 μL). Cells were typically maintained at 37° C. for 4 h to promote synthetic receptor-mediated endocytosis. Prior to analysis, treated cells were washed with media (0.5 mL), washed again with media containing 6-(2,4-dinitrophenyl)aminohexanoic acid (100 μM, 3×0.5 mL×20 min, 1% DMSO) to compete away any non-internalized protein, washed again with media (0.5 mL), and resuspended in media (0.6 mL) for analysis by epifluorescence microscopy, confocal microscopy, or flow cytometry.
Antibody uptake kinetics (FIG. 8, Panel C). To determine the relative uptake rates shown on the left of FIG. 8C, Jurkat lymphocytes were subjected to the antibody uptake assay (cells were treated with receptors 2-5 at 10 μM for 1 h followed by addition of a pre-equilibrated complex (preincubated at 23° C. for 1 h) of anti-DNP-IgG/PrA-AF488 for 15 min to 4 h) and internalized cellular fluorescence was quantified by flow cytometry. […] Observed rates of ligand uptake (kobs) were calculated with a Michaelis-Menten kinetic model assuming saturating concentrations of substrate (kobs=(Ft−F0)/t). t=time (in minutes), Ft=fluorescence at the specified time, and F0=fluorescence at time=0 min. The slope of plots of fluorescence vs. time provided kobs values that were divided by the basal rate of endocytosis (no receptor) to determine the relative rates of uptake.
These cells were washed with ice-cold media (500 μL) and maintained at 4° C. A pre-equilibrated (1 h at 23° C.) ice-cold solution of RPMI media (100 μL) containing anti-DNP-IgG (7.2 μg) and PrA-AF488 (2 μg) was added. After 1 h at 4° C., the cells were washed with ice-cold RPMI media (2×500 μL). Cells were equilibrated at 37° C. for 20 min prior to fluorescence measurements to dissociate excess surface-bound antibody. After equilibration, uptake experiments were initiated (this was defined as t=0 min). Cells were subsequently incubated at 37° C. for fixed periods of time (0 to 3 h), cooled to 4° C. on ice, and washed with ice-cold RPMI media containing 6-(2,4-dinitrophenyl)aminohexanoic acid (100 μM, 1% DMSO, 3×0.5 mL×10 min at 4° C. followed by 2×0.5 mL×20 min at 23° C.) to remove non-internalized IgG. Intracellular fluorescence was quantified by flow cytometry. Cell surface fluorescence was calculated by subtracting this intracellular fluorescence from cellular fluorescence measured at t=0 min (after the initial equilibration at 37° C. for 20 min; the competition with 6-(2,4-dinitrophenyl)aminohexanoic acid was omitted to analyze this cellular fluorescence).
Synthetic receptors were evaluated as mediators of cellular uptake of protein ligands in living Jurkat lymphocytes, a human T cell line. Confocal laser scanning microscopy and flow cytometry were employed to analyze cells treated with compounds 2-9 for 1 hour followed by addition of anti-DNP IgG complexed with fluorescent conjugates of the IgG-binding protein A (PrA) from S. aureus. […] (FIG. 9, Panel A). This intracellular red fluorescence was 59-fold lower in the absence of receptor 6 consistent with a synthetic receptor-mediated uptake mechanism. The IgG-loaded intracellular compartments were identified as late endosomes and lysosomes by co-localization studies in cells transfected with EGFP-lgp120, a fluorescent protein marker of these compartments.

Jurkat lymphocytes [4] = assay: Efflux kinetics from endosomes to plasma membrane by back exchange; assay type: cell-based, human
Description: FIG. 11. Quantification of efflux kinetics of receptor 10 from endosomes to the plasma membrane of Jurkat lymphocytes by back exchange. Cells treated with 10 (1 μM, 1 hour) were cooled to 4° C. and cell surface fluorophores removed (>90%) by repeated washing with ice-cold back exchange media containing BSA (1%) and methyl-β-cyclodextrin (2 mM). Cells were resuspended in back exchange media at 37° C. to resume recycling, cellular fluorescence was quantified by flow cytometry, and loss of fluorescence was evaluated with a one-site exponential decay model.
Quantification of efflux kinetics of receptor 10 from endosomes to the plasma membrane by back exchange (FIG. 11). The efficiency of removal of 10 from the plasma membrane was examined prior to analysis of efflux kinetics. Jurkat lymphocytes (3×10^6) were suspended in ice-cold serum free recycling media (1.5 mL) and maintained on ice (2 min) to block plasma membrane recycling. These cells were resuspended in ice-cold serum free recycling media (1.5 mL, 1% DMSO) containing 10 (1 μM) and maintained on ice (10 min) to allow association of 10 with the plasma membrane. Receptor-treated cells were washed with ice-cold serum free recycling media (2×0.5 mL), resuspended in ice-cold serum free recycling media (1.5 mL), and analyzed by flow cytometry.
These cells were washed with serum free recycling media (2×1 mL) to remove unincorporated receptor (10). These receptor-treated cells were cooled on ice (5 min) to halt recycling and washed with ice-cold back-exchange media (6×1.5 mL×10 min) to selectively remove 10 from the cell surface without affecting the population of 10 in intracellular endosomes. These cells were resuspended in warm back exchange media (37° C., 1.5 mL) to initiate plasma membrane recycling and immediately analyzed by flow cytometry (defined as t=0 min). Cells were isolated by centrifugation, resuspended in warm back exchange media (1.5 mL, 37° C.), incubated at 37° C., and analyzed by flow cytometry as a function of time.
To quantify the rate of plasma membrane recycling, oregon green-derived receptor 10 was employed. Unlike the more strongly cell-associated DNP and NBD-based receptors, the compound 10 binds proteins in cell culture media and can be rapidly and efficiently depleted from cell surfaces by washing cells with “back exchange” media containing bovine serum albumin (BSA, 1%) and methyl-beta-cyclodextrin (Me-beta-CD, 2 mM). This concentration of Me-beta-CD is known to affect neither endocytosis nor plasma membrane recycling. The oregon green-fluorophore of 10 was also chosen for these studies because unlike structurally similar carboxydifluorescein the fluorescence of oregon green is not appreciably quenched in acidic environment of endosomal compartments. […]

[5] = system: mouse J-774 cells and human HeLa cells; assay: Flow cytometric analysis of cellular uptake of fluorescent vancomycin 2; assay type: cell-based
Description: FIG. 18. Flow cytometric analysis of cellular uptake of fluorescent vancomycin 2 promoted by synthetic receptor 3 and control compounds. Preload conditions: Receptor 3 or analogues (4, 5) were added to cells for 1 h to load the plasma membrane, cells were washed, and 2 (3 μM) was added for 4 h. Premix conditions: Receptor 3 or analogues (4, 5) were preequilibrated with 2 (3 μM) at 23° C. for 1 h followed by addition of this mixture to cells for 4 h.
The dose-dependent effectiveness of delivery of 2 into mouse J-774 cells and human HeLa cells mediated by […] was examined quantitatively by flow cytometry.

[6] = read-out: affinity for vancomycin (Kd); cited from earlier work
[7] = 10 μM receptor for 1 hour, anti-DNP/PrA-AF488

Compound: 6-(7-nitrobenzofuran-4-ylamino)hexanoic acid [compound 28, reference compound]
- Kd [1]: 820 ± 144 nM

Compound: O=C(CCCCCNc1ccc([N+](=O)[O-])cc1[N+](=O)[O-])NCCCNC(=S)Nc1ccc(-c2c3ccc(=O)cc-3oc3cc(O)ccc23)c(C(=O)O)c1 [compound 27]
- Kd [1]: 23 ± 1.5 nM

Compound: CC(C)CCC[C@@H](C)[C@H]1CC[C@H]2[C@@H]3CC=C4C[C@@H](NCCCNC(=O)CCNC(=O)CCNC(=O)CCCCCNc5ccc([N+](=O)[O-])cc5[N+](=O)[O-])CC[C@]4(C)[C@H]3CC[C@]12C [receptor 2, N-(3-{[3-({3-[(3β)-cholest-5-en-3-ylamino]propyl}amino)-3-oxopropyl]amino}-3-oxopropyl)-6-[(2,4-dinitrophenyl)amino]hexanamide]
- cell surface half-life (Jurkat lymphocytes [2]): 20 h
- enhancement of cellular uptake of anti-DNP IgG in magnitude compared with basal levels of endocytosis (Jurkat lymphocytes [3]; [7]): 208 fold
- enhancement of cellular uptake of anti-DNP IgG in rate compared with basal levels of endocytosis (Jurkat lymphocytes [3]; [7]): 391 fold
- efficiency as mediator of ligand (IgG) uptake (Jurkat lymphocytes [3]): by far the most efficient
- rate of uptake (k) (Jurkat lymphocytes [3]; receptor at 1 μM, anti-DNP-IgG/PrA-AF488, 37° C.): 0.007327 ± 0.000006 min⁻¹
- ligand internalization half-life (t1/2) (Jurkat lymphocytes [3]; receptor at 1 μM, calculated as (ln 2)/k): 1.58 h

Compound: CC(C)CCC[C@@H](C)[C@H]1CC[C@H]2[C@@H]3CC=C4C[C@@H](NCCCNC(=O)CCNC(=O)CCCCCNc5ccc([N+](=O)[O-])cc5[N+](=O)[O-])CC[C@]4(C)[C@H]3CC[C@]12C [receptor 3, N-[3-({3-[(3β)-cholest-5-en-3-ylamino]propyl}amino)-3-oxopropyl]-6-[(2,4-dinitrophenyl)amino]hexanamide]
- efficiency as mediator of ligand (IgG) uptake (Jurkat lymphocytes [3]): dramatically diminished the effectiveness

Compound: CC(C)CCC[C@@H](C)[C@H]1CC[C@H]2[C@@H]3CC=C4C[C@@H](NCCCNC(=O)CCCCCNc5ccc([N+](=O)[O-])cc5[N+](=O)[O-])CC[C@]4(C)[C@H]3CC[C@]12C [receptor 4, N-{3-[(3β)-cholest-5-en-3-ylamino]propyl}-6-[(2,4-dinitrophenyl)amino]hexanamide]
- efficiency as mediator of ligand (IgG) uptake (Jurkat lymphocytes [3]): dramatically diminished the effectiveness

Compound: CC(C)CCC[C@@H](C)[C@H]1CC[C@H]2[C@@H]3CC=C4C[C@@H](NC(=O)CCNC(=O)CCCCCNc5ccc([N+](=O)[O-])cc5[N+](=O)[O-])CC[C@]4(C)[C@H]3CC[C@]12C [receptor 5, N-{3-[(3β)-cholest-5-en-3-ylamino]-3-oxopropyl}-6-[(2,4-dinitrophenyl)amino]hexanamide]
- efficiency as mediator of ligand (IgG) uptake (Jurkat lymphocytes [3]): essentially abolished internalization of IgG
- reduction of IgG delivery relative to receptor 4 (secondary amine converted to secondary amide) (Jurkat lymphocytes [3]; at 10 μM): over 50 fold

Compound: CC(C)CCC[C@@H](C)[C@H]1CC[C@H]2[C@@H]3CC=C4C[C@@H](NCCCNC(=O)CCNC(=O)CCNC(=O)CCCCCNc5ccc([N+](=O)[O-])c6nonc56)CC[C@]4(C)[C@H]3CC[C@]12C [receptor 6, N-(3-{[3-({3-[(3β)-cholest-5-en-3-ylamino]propyl}amino)-3-oxopropyl]amino}-3-oxopropyl)-6-(7-nitrobenzofurazan-4-ylamino)hexanamide]
- intracellular red fluorescence lower in the absence of receptor (Jurkat lymphocytes [3]; 10 μM receptor, red fluorescent anti-DNP IgG/PrA): 59 fold

Compound: CC(C)CCCC(C)[C@H]1CCC2C3CC=C4CC(NCCCNC(=O)CCNC(=O)c5ccc(-c6c7cc(F)c(=O)cc-7oc7cc(O)c(F)cc67)c(C(=O)O)c5)CC[C@]4(C)C3CC[C@@]21C (stereo partly shown) [receptor 10]
- recycling half-life (Jurkat lymphocytes [4]; 1 μM, back exchange media 37° C., one-phase exponential decay): 2.8 ± 0.8 min
- removal of receptor from the cell surface (Jurkat lymphocytes [4]; additional/repeated wash steps with back-exchange media): > 90%
- loss of total cellular fluorescence (Jurkat lymphocytes [4]; four total wash steps with back-exchange media, 1 μM): 84%
- loss of total cellular fluorescence (Jurkat lymphocytes [4]; single wash with ice-cold back-exchange media, 1 μM): 44%

Compound: AcNH-D-Phe-D-Ala-CO2H
- effect of soluble competitor on receptor-mediated ligand uptake [5]: blocked

Compound: D-Phe-D-Ala [D-Phe-D-Ala dipeptide]
- Kd [6]: ~7000 nM
